Patent publication US20080200442A1, “Compositions and Methods for Treating, Reducing, Ameliorating, or Preventing Infections of the Ear or Upper Respiratory Tract” (priority 2007, published 2008)
Values after ≈ are worked out from the molar mass of the structure shown.

tested on: Salmonella typhimurium (TD); assay: In vitro anti-bacterial activity (MIC90), Gram-negative reference strains; type: cell-based; conditions: not given
Method: Anti-bacterial activity of the compound having Formula III was tested against several Gram-negative reference bacteria strains and compared to the anti-bacterial activity of three commercially available antibiotics (nadifloxacin, ofloxacin, and sparfloxacin).

Row | SMILES | MIC90
1 | CC1CCc2c(N3CCC(O)CC3)c(F)cc3c(=O)c(C(=O)O)cn1c23 (stereo not shown) [Nadifloxacin] | 0.2 mμg/mL

tested on: Bacillis subtilis (ATCC 6633); assay: In vitro anti-bacterial activity (MIC90), Gram-positive reference strains; type: cell-based; conditions: not given
Method: (§1) Anti-bacterial activity of the compound having Formula III was tested against several Gram-negative reference bacteria strains and compared to the anti-bacterial activity of three commercially available antibiotics (nadifloxacin, ofloxacin, and sparfloxacin). The results are shown in Table 2 as MIC90 values (minimum concentration of the active compound required to inhibit ninety percent of the growth of a specified pathogen, in μg/ml). Anti-bacterial activity of the compound having Formula III was tested against several Gram-positive reference bacteria strains and compared to the anti-bacterial activity of three commercially available antibiotics (nadifloxacin, ofloxacin, and sparfloxacin).

Row | SMILES | MIC90
2 | CC1CCc2c(N3CCC(O)CC3)c(F)cc3c(=O)c(C(=O)O)cn1c23 (stereo not shown) [Nadifloxacin] | 0.006 µg/mL (≈ 0.0166 µM)

tested on: Sarcina lutea (ATCC 9341); assay: as above; type: cell-based; conditions: Micrococcus luteus, ATCC9341
Method: as §1

Row | SMILES | MIC90
3 | CC1CCc2c(N3CCC(O)CC3)c(F)cc3c(=O)c(C(=O)O)cn1c23 (stereo not shown) [Nadifloxacin] | 0.39 µg/mL (≈ 1.08 µM)

tested on: Staphylococcus aureus (ATCC 25933); assay: as above; type: cell-based; conditions: ATCC25933
Method: as §1

Row | SMILES | MIC90
4 | CC1CCc2c(N3CCC(O)CC3)c(F)cc3c(=O)c(C(=O)O)cn1c23 (stereo not shown) [Nadifloxacin] | 0.05 µg/mL (≈ 0.139 µM)

tested on: Staphylococcus aureus (FDA 209P); assay: as above; type: cell-based; conditions: FDA209P
Method: as §1

Row | SMILES | MIC90
5 | CC1CCc2c(N3CCC(O)CC3)c(F)cc3c(=O)c(C(=O)O)cn1c23 (stereo not shown) [Nadifloxacin] | 0.024 µg/mL (≈ 0.0666 µM)

tested on: Staphylococcus aureus (Smith); assay: as above; type: cell-based; conditions: not given
Method: as §1

Row | SMILES | MIC90
6 | CC1CCc2c(N3CCC(O)CC3)c(F)cc3c(=O)c(C(=O)O)cn1c23 (stereo not shown) [Nadifloxacin] | 0.024 µg/mL (≈ 0.0666 µM)

tested on: Staphylococcus epidermidis (ATCC 12228); assay: as above; type: cell-based; conditions: ATCC12228
Method: as §1

Row | SMILES | MIC90
7 | CC1CCc2c(N3CCC(O)CC3)c(F)cc3c(=O)c(C(=O)O)cn1c23 (stereo not shown) [Nadifloxacin] | 0.1 µg/mL (≈ 0.277 µM)

tested on: Streptococcus faecalis (ATCC 29212); assay: as above; type: cell-based; conditions: Enterococcus faecalis, ATCC29212
Method: as §1

Row | SMILES | MIC90
8 | CC1CCc2c(N3CCC(O)CC3)c(F)cc3c(=O)c(C(=O)O)cn1c23 (stereo not shown) [Nadifloxacin] | 0.78 µg/mL (≈ 2.16 µM)

tested on: Streptococcus faecalis (IFO 12964); assay: as above; type: cell-based; conditions: Enterococcus faecalis, IFO12964
Method: as §1

Row | SMILES | MIC90
9 | CC1CCc2c(N3CCC(O)CC3)c(F)cc3c(=O)c(C(=O)O)cn1c23 (stereo not shown) [Nadifloxacin] | 0.78 µg/mL (≈ 2.16 µM)

tested on: Streptococcus pneniae (IID 554); assay: as above; type: cell-based; conditions: IID554
Method: as §1

Row | SMILES | MIC90
10 | CC1CCc2c(N3CCC(O)CC3)c(F)cc3c(=O)c(C(=O)O)cn1c23 (stereo not shown) [Nadifloxacin] | 0.78 µg/mL (≈ 2.16 µM)

tested on: Streptococcus pneumoniae (IID 553); assay: as above; type: cell-based; conditions: IID553
Method: as §1

Row | SMILES | MIC90
11 | CC1CCc2c(N3CCC(O)CC3)c(F)cc3c(=O)c(C(=O)O)cn1c23 (stereo not shown) [Nadifloxacin] | 0.78 µg/mL (≈ 2.16 µM)

tested on: Streptococcus pyogenes (Cook); assay: as above; type: cell-based; conditions: not given
Method: as §1

Row | SMILES | MIC90
12 | CC1CCc2c(N3CCC(O)CC3)c(F)cc3c(=O)c(C(=O)O)cn1c23 (stereo not shown) [Nadifloxacin] | 0.78 µg/mL (≈ 2.16 µM)

tested on: Streptococcus pyogenes (IID 698); assay: as above; type: cell-based; conditions: IID698
Method: as §1

Row | SMILES | MIC90
13 | CC1CCc2c(N3CCC(O)CC3)c(F)cc3c(=O)c(C(=O)O)cn1c23 (stereo not shown) [Nadifloxacin] | 0.1 µg/mL (≈ 0.277 µM)

tested on: Staphylococcus aureus (ATCC 33591); assay: In vitro anti-bacterial activity (MIC90), methicillin-resistant Staphylococcus aureus isolates; type: cell-based; conditions: ATCC33591; methicillin-resistant Staphylococcus aureus (ATCC 33591)
Method: (§2) Anti-bacterial activity of the compound having Formula III was tested against several Gram-negative reference bacteria strains and compared to the anti-bacterial activity of three commercially available antibiotics (nadifloxacin, ofloxacin, and sparfloxacin). The results are shown in Table 2 as MIC90 values (minimum concentration of the active compound required to inhibit ninety percent of the growth of a specified pathogen, in μg/ml).
(§3) Anti-bacterial activity of the compound having Formula III was tested against some methicillin-resistant Staphylococcus aureus bacteria strains and compared to the anti-bacterial activity of three commercially available antibiotics (nadifloxacin, ofloxacin, and sparfloxacin).

Row | SMILES | MIC90
14 | CC1CCc2c(N3CCC(O)CC3)c(F)cc3c(=O)c(C(=O)O)cn1c23 (stereo not shown) [Nadifloxacin] | 0.006 µg/mL (≈ 0.0166 µM)

tested on: Staphylococcus aureus (ATCC 33592); assay: as above; type: cell-based; conditions: ATCC33592; methicillin-resistant Staphylococcus aureus (ATCC 33592)
Method: as §2, §3

Row | SMILES | MIC90
15 | CC1CCc2c(N3CCC(O)CC3)c(F)cc3c(=O)c(C(=O)O)cn1c23 (stereo not shown) [Nadifloxacin] | 0.05 µg/mL (≈ 0.139 µM)

tested on: Staphylococcus aureus (ATCC 33593); assay: as above; type: cell-based; conditions: ATCC33593; methicillin-resistant Staphylococcus aureus (ATCC 33593)
Method: as §2, §3

Row | SMILES | MIC90
16 | CC1CCc2c(N3CCC(O)CC3)c(F)cc3c(=O)c(C(=O)O)cn1c23 (stereo not shown) [Nadifloxacin] | 0.024 µg/mL (≈ 0.0666 µM)

tested on: Staphylococcus aureus (No. 395); assay: as above; type: cell-based; conditions: methicillin-resistant Staphylococcus aureus (No. 395)
Method: as §2, §3

Row | SMILES | MIC90
17 | CC1CCc2c(N3CCC(O)CC3)c(F)cc3c(=O)c(C(=O)O)cn1c23 (stereo not shown) [Nadifloxacin] | 0.024 µg/mL (≈ 0.0666 µM)

tested on: Staphylococcus aureus (No. 415); assay: as above; type: cell-based; conditions: methicillin-resistant Staphylococcus aureus (No. 415)
Method: as §2, §3

Row | SMILES | MIC90
18 | CC1CCc2c(N3CCC(O)CC3)c(F)cc3c(=O)c(C(=O)O)cn1c23 (stereo not shown) [Nadifloxacin] | 0.1 µg/mL (≈ 0.277 µM)

tested on: Staphylococcus aureus (No. 419); assay: as above; type: cell-based; conditions: methicillin-resistant Staphylococcus aureus (No. 419)
Method: as §2, §3

Row | SMILES | MIC90
19 | CC1CCc2c(N3CCC(O)CC3)c(F)cc3c(=O)c(C(=O)O)cn1c23 (stereo not shown) [Nadifloxacin] | 0.39 µg/mL (≈ 1.08 µM)

tested on: Staphylococcus aureus (No. 420); assay: as above; type: cell-based; conditions: methicillin-resistant Staphylococcus aureus (No. 420)
Method: as §2, §3

Row | SMILES | MIC90
20 | CC1CCc2c(N3CCC(O)CC3)c(F)cc3c(=O)c(C(=O)O)cn1c23 (stereo not shown) [Nadifloxacin] | 0.78 µg/mL (≈ 2.16 µM)

tested on: Staphylococcus aureus (No. 421); assay: as above; type: cell-based; conditions: methicillin-resistant Staphylococcus aureus (No. 421)
Method: as §2, §3

Row | SMILES | MIC90
21 | CC1CCc2c(N3CCC(O)CC3)c(F)cc3c(=O)c(C(=O)O)cn1c23 (stereo not shown) [Nadifloxacin] | 0.78 µg/mL (≈ 2.16 µM)

tested on: Clostridium perfringens (KZ 210); assay: microbe, parasite or virus in culture; type: cell-based; conditions: not given

Row | SMILES | MIC90
22 | CC1CCc2c(N3CCC(O)CC3)c(F)cc3c(=O)c(C(=O)O)cn1c23 (stereo not shown) [Nadifloxacin] | 0.2 µg/mL (≈ 0.555 µM)

tested on: Peptostreptococcus micros (GIFU 7824); assay: In vitro anti-bacterial activity (MIC90), anaerobic reference bacteria; type: cell-based; conditions: Parvimonas micra

Row | SMILES | MIC90
23 | CC1CCc2c(N3CCC(O)CC3)c(F)cc3c(=O)c(C(=O)O)cn1c23 (stereo not shown) [Nadifloxacin] | 0.39 µg/mL (≈ 1.08 µM)

tested on: Peptostreptococcus magnum (GAI 0664); assay: as above; type: cell-based; conditions: not given

Row | SMILES | MIC90
24 | CC1CCc2c(N3CCC(O)CC3)c(F)cc3c(=O)c(C(=O)O)cn1c23 (stereo not shown) [Nadifloxacin] | 0.2 µg/mL (≈ 0.555 µM)

tested on: Propionibacterium acnes (GAI 5419); assay: as above; type: cell-based; conditions: Cutibacterium acnes

Row | SMILES | MIC90
25 | CC1CCc2c(N3CCC(O)CC3)c(F)cc3c(=O)c(C(=O)O)cn1c23 (stereo not shown) [Nadifloxacin] | 0.2 µg/mL (≈ 0.555 µM)

tested on: Propionibacterium acnes (ATCC 6919); assay: as above; type: cell-based; conditions: Cutibacterium acnes, ATCC6919

Row | SMILES | MIC90
26 | CC1CCc2c(N3CCC(O)CC3)c(F)cc3c(=O)c(C(=O)O)cn1c23 (stereo not shown) [Nadifloxacin] | 0.2 µg/mL (≈ 0.555 µM)

tested on: Propionibacterium acnes (ATCC 11828); assay: as above; type: cell-based; conditions: Cutibacterium acnes, ATCC11828

Row | SMILES | MIC90
27 | CC1CCc2c(N3CCC(O)CC3)c(F)cc3c(=O)c(C(=O)O)cn1c23 (stereo not shown) [Nadifloxacin] | 0.78 µg/mL (≈ 2.16 µM)

tested on: Bacteroides fragillis (GAI 0675); assay: as above; type: cell-based; conditions: not given

Row | SMILES | MIC90
28 | CC1CCc2c(N3CCC(O)CC3)c(F)cc3c(=O)c(C(=O)O)cn1c23 (stereo not shown) [Nadifloxacin] | 1.56 µg/mL (≈ 4.33 µM)

tested on: Bacteroides thetaiotaomicron (GAI 0659); assay: as above; type: cell-based; conditions: Bacteroides thetaiotaomicron

Row | SMILES | MIC90
29 | CC1CCc2c(N3CCC(O)CC3)c(F)cc3c(=O)c(C(=O)O)cn1c23 (stereo not shown) [Nadifloxacin] | 1.56 µg/mL (≈ 4.33 µM)

tested on: Bacteroides vulgatus (GAI 0673); assay: as above; type: cell-based; conditions: Phocaeicola vulgatus

Row | SMILES | MIC90
30 | CC1CCc2c(N3CCC(O)CC3)c(F)cc3c(=O)c(C(=O)O)cn1c23 (stereo not shown) [Nadifloxacin] | 0.78 µg/mL (≈ 2.16 µM)

tested on: Veillonella parvula (GAI 5602); assay: as above; type: cell-based; conditions: not given

Row | SMILES | MIC90
31 | CC1CCc2c(N3CCC(O)CC3)c(F)cc3c(=O)c(C(=O)O)cn1c23 (stereo not shown) [Nadifloxacin] | 0.78 µg/mL (≈ 2.16 µM)
